Results reported in article PMC8761912, “Cryptosporidium parvum Pyruvate Kinase Inhibitors With in vivo Anti-cryptosporidial Efficacy” (Frontiers in Microbiology, 2022).
Like-named read-outs stand apart in the source and are kept apart here. Marks after values point to notes of the source that are not given here.

T1: rCpPyK (Cryptosporidium parvum, UniProt Q5CSM7)
T1 sequence (Q5CSM7 7-532): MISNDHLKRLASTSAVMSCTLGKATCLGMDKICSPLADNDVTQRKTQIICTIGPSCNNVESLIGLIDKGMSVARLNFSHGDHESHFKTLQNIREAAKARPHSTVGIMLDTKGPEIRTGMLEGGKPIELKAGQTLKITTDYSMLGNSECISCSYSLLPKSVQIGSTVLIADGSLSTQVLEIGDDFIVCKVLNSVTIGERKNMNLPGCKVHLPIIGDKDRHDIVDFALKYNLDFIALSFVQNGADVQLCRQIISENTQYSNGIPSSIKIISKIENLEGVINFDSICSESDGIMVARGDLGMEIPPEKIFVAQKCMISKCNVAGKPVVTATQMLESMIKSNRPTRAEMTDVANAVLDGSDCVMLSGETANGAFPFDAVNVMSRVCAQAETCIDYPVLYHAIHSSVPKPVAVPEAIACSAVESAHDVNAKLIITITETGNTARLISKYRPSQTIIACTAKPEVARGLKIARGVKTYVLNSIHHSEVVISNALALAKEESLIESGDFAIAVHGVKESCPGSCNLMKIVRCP

B1: rCpPyK (Cryptosporidium parvum Iowa II) (protein)
chain: T1 sequence (Q5CSM7 7-532)

Assays:
Solubility = type: physicochemical; settings: solvent not stated
[1] = biological target: recombinant CpPyK (rCpPyK) protein (Cryptosporidium parvum, UniProt Q5CSM7); experiment: rCpPyK enzymatic activity inhibition assay (ATP detection, Cell Titer-Glo luminescence); type: biochemical
Description: (§1) The in vitro enzymatic activity of the rCpPyK protein was determined by quantitating the amount of ATP produced by the transfer of a phosphate group from phosphoenolpyruvate to adenosine diphosphate (ADP) in the presence of varying concentrations of the recombinant protein (Figure 1A). A typical assay contained 0.5 mM phosphoenolpyruvate, 0.6 mM ADP, 50 mM Tris buffer pH 7.5, 60 mM MgSO4, 100 mM KCl, and varying concentrations of rCpPyK incubated for 3 h at room temperature. The ATP generated was detected in a reaction volume of 50 μl in white opaque-walled 96 well plates by the luciferase-based Cell Titer-Glo 2.0 reagent (Promega) following the manufacturer’s instructions. The enzyme kinetics of rCpPyK were determined by using varying phosphoenolpyruvate (0–8 mM) and ADP (0–2 mM) concentrations in an enzymatic reaction catalyzed by a fixed concentration of the recombinant protein (6 ng/μl). In all assays, reaction mixtures without rCpPyK were included as negative controls. Three independent assays were performed for each experiment, and samples were run in triplicate. The luminescence generated was recorded using a multi-mode microplate reader (Spectra Max iD3; Molecular Devices, United States). GraphPad PRISM® v8 software was used to fit the Michaelis–Menten model directly to the substrate-velocity data to determine the enzymatic kinetic parameters for rCpPyK.
The Diversity Set VI chemical library (Supplementary Table 1) was obtained from the National Cancer Institute (NCI)/Developmental Therapeutics Program (DTP) Open Repository collection of chemical compounds.^1 Compounds were individually reconstituted in molecular biology grade dimethyl sulfoxide (DMSO) from Sigma-Aldrich and stored at −20°C. From the library, 1,424 compounds were screened in 96-well plates using the rCpPyK catalyzed enzyme assay to identify potential CpPyK inhibitors. The reactions were performed in 50 μl reaction volume containing 0.5 mM phosphoenolpyruvate, 0.6 mM ADP, 50 mM Tris buffer pH 7.5, 60 mM MgSO4, 100 mM KCl, and 6 ng/μl of rCpPyK protein with or without compound. The concentration of DMSO in all reaction mixtures was 1% (v/v). Control reactions without rCpPyK protein were included for background subtraction. Following 3 h of incubation at room temperature, an equal volume of the Cell Titer-Glo 2.0 reagent was added to each well, and the luminescence produced was recorded as relative luminescence units (RLU) after 10 min of incubation using a multi-mode microplate reader (Spectra Max iD3; Molecular Devices, United States). The mean percent inhibition (MPI) of rCpPyK activity by each compound was derived by dividing the difference in luminescence (RLU) between the compound-treated wells and the DMSO-treated wells by the luminescence of the DMSO-treated wells and multiplying the product by 100:
(1) MPI=[(MeanRLUDMSO-treated-MeanRLUCompound-treated)÷MeanRLUDMSO-treated]×100.
Half maximal inhibitory concentration (IC50) values were determined by applying a non-linear regression analysis curve fit to the mean dose-response data for varying concentrations of each compound using GraphPad PRISM® v8. Reactions were performed in triplicate and repeated at least thrice.

[2] = Physicochemical properties adapted from PubChem; settings: based on Supplementary Table 2 properties
Source text: Supplementary Table S2. Physicochemical properties of identified CpPyK inhibitors (Adapted from: https://pubchem.ncbi.nlm.nih.gov).
NSC Molecular Molecular Number of Number of Number of Polar number IUPAC name formula weight cLog(p) Hydrogen bond Hydrogen bond rotatable surface donors acceptors bonds area (Å²) […]

C. parvum = experiment: In vitro anti-Cryptosporidium activity in infected HCT-8 cells (immunofluorescence assay); type: cell-based, Cryptosporidium parvum; settings: for effect on in vitro proliferation and viability of C. parvum: 25 μM, added immediately after infection, 48 h of culture, vs untreated parasites; for EC50: Cryptosporidium parvum; for effect on proliferation of intracellular C. parvum in HCT-8 cells: varying concentrations, 0 h or 2 h PI, analysed 48 h PI, vs infected cultures without compound
Description: Once confluent, the cells were infected with 10^5 freshly excysted C. parvum sporozoites per well, immediately followed by the addition of anti-CpPyK compounds (reconstituted in DMSO) to one set of wells. Control infected cells were treated with DMSO volumes equivalent to those used for the compound-treated cultures. Paromomycin reconstituted in distilled sterile water, served as a positive control at a concentration of 200 μM. […] Briefly, the medium was removed from the culture wells, and the cells were washed two times with PBS before fixation with pre-chilled methanol-acetic acid (9:1) for 5 min at room temperature. Residual fixative was removed by rinsing the wells with PBS. Cells were rehydrated and permeabilized by washing twice with a buffer containing 0.1% Triton X-100, 0.35 M NaCl, and 0.13 M Tris-base, pH 7.6. Normal goat serum (5% in PBS) was used as a blocking agent, and the cell monolayer was stained with a fluorescein-labeled anti-C. parvum polyclonal antibody (Sporo-Glo™; Waterborne, Inc.) overnight at 4°C. The stained cells were washed twice with PBS followed by the addition of 200 μl water to each well. Plates were then imaged with an inverted fluorescence microscope using a 20× objective. The fluorescence generated by intracellular C. parvum parasites was quantified from nine microscopic fields per well of a 96-well plate using the batch process function in ImageJ version v1.50 (NIH, United States) after setting a threshold for the detection of parasites. Control wells with uninfected monolayers were included for background subtraction. Experiments were performed in triplicate and repeated at least three times.
One set of wells with confluent HCT-8 cells received CpPyK inhibitors immediately after C. parvum infection, while the same compounds were added to the other set of wells 2 h post-infection (PI). Control infected cells were treated with varying volumes of DMSO equivalent to the ones used for the compound-treated cultures. Cell monolayers were processed for immunofluorescence analysis after 48 h of incubation as described above. Samples were run in triplicate and three independent assays were performed. EC50 values were calculated using non-linear regression analysis of the mean dose-response curve data in GraphPad PRISM® v8.

[3] = ref https://pubchem.ncbi.nlm.nih.gov, cited from earlier work; for Polar surface area: topological
[4] = In vitro compound cytotoxicity assay (WST-1); type: cell-based; settings: human, uninfected HCT-8 cells
Description: Compounds were tested for cytotoxicity in human ileocecal colorectal adenocarcinoma cells [HCT-8 (HRT-18); ATCC® CCL-244™, CVCL_2478] by using the cell proliferation reagent WST-1 (Roche) according to the manufacturer’s protocol. The WST-1 assay is a quantitative colorimetric assay for measurement of metabolically active cells. This assay is based on the reduction of the tetrazolium salt (WST-1) by viable cells. About 5 × 10^4 HCT-8 cells were seeded per well in 96-well plates and grown overnight in 200 μl of RPMI-1640 medium (without phenol red) (Gibco) supplemented with 2.5 g/L of glucose, 1 mM sodium pyruvate, 1.5 g/L of sodium bicarbonate, 10% heat-inactivated FBS (Gibco), and 1 × Antibiotic-Antimycotic (Gibco) at 37°C with 5% CO2 in a humidified incubator. Upon reaching 80–90% confluency, cells were treated with the chemical compounds reconstituted in DMSO for 24 h. The volume of DMSO was kept below 1% of the total culture volume in all the wells to avoid DMSO cytotoxicity. Control wells received equivalent volumes of DMSO used in the reconstituted compounds. After 24 h of culture, 10 μl of the WST-1 reagent was added to each well, and the plates were incubated for 1 h at 37°C with 5% CO2 under dark conditions. The plates were shaken thoroughly and 150 μl of the medium from each well was transferred to a new clear flat-bottom black 96-well plate (Corning). Absorbance was read at a test wavelength of 440 nm and a reference wavelength of 690 nm using a multi-mode microplate reader (Spectra Max iD3; Molecular Devices, United States). The mean percent toxicity (MPT) of each compound was derived by dividing the difference in absorbance (OD) between the compound-treated cells and the DMSO-treated cells by the absorbance from the DMSO-treated cells and multiplying the product by 100:
(2) MPT=[(MeanODDMSO-treated-MeanODCompound-treated)÷MeanODDMSO-treated]×100.
The half maximal cytotoxic concentration (CC50) values were determined by using non-linear regression analysis in GraphPad PRISM® v8. Assays were performed in triplicate and repeated three times.

rCpPyK = biological target: T1, rCpPyK; settings: previously reported for CpPyK; ref Denton et al. (1996); cited from earlier work
[5] = substrate: C=C(OP(=O)(O)O)C(=O)O; experiment: rCpPyK enzyme kinetics on substrates (Michaelis–Menten); type: biochemical, Cryptosporidium parvum; settings: other: 6 ng/μl rCpPyK, varying substrate; pH 7.5
Description: as §1

[6] = substrate: Nc1ncnc2c1ncn2[C@@H]1O[C@H](COP(=O)(O)OP(=O)(O)O)[C@@H](O)[C@H]1O; experiment: as above; type: biochemical, Cryptosporidium parvum; settings: other: 6 ng/μl rCpPyK, varying substrate; pH 7.5
Description: as §1

[7] = HCT-8, read-out: Anti-C. parvum EC50, 0 h PI
[8] = HCT-8, read-out: Anti-C. parvum EC50, 2 h PI

Molecule	solubility (Solubility)	IC50 [1]	conformity to Lipinski's and Veber's rules for drug-likeness [2]	effect on in vitro proliferation and viability of C. parvum (C. parvum)	EC50 (C. parvum; [7])	EC50 (C. parvum; [8])	effect on proliferation of intracellular C. parvum in HCT-8 cells (C. parvum)	Number of Hydrogen bond acceptors [3]	Number of Hydrogen bond donors [3]	Polar surface area [3]	CC50 at 24 h [4]	IC50 ([1]; 6 ng/μl rCpPyK, 3 h at room temperature, read-out: Enzyme inhibition IC50)	Selectivity index (CC50/EC50) (C. parvum; HCT-8 CC50 / anti-C. parvum EC50)	Km (rCpPyK)	Vmax (rCpPyK)	Km [5]	Vmax [5]	Km [6]	Vmax [6]
CN(C)c1ccc(/C=C/C(=O)c2cc(Cl)ccc2O)cc1 [NSC11437, (E)-1-(5-chloro-2-hydroxyphenyl)-3-[4-(dimethylamino)phenyl]prop-2-en-1-one]	low solubility	156 µM	conform	significant inhibitory effect	23.8 µM	27.3 µM	significant (P < 0.05) concentration-dependent inhibitory effect	3	1	40.5 Å²	612 µM								
COc1cccc(/C=C2\CCc3ccccc3C2=O)c1 [NSC636718, (2E)-2-[(3-methoxyphenyl)methylidene]-3,4-dihydronaphthalen-1-one]			conform	significant inhibitory effect	33.8 µM	33.6 µM	significant (P < 0.05) concentration-dependent inhibitory effect	2	0	26.3 Å²	106 µM	117 µM	3.15						
C=C(OP(=O)(O)O)C(=O)O [Phosphoenolpyruvate, phosphoenolpyruvate]														320 µM	6.82 nmol/µg/min				
B1																1.29 (0.32^a) mM	12.1 µmol/min/mg	40 µM	4.64 µmol/min/mg
